# Assay results: patent publication US9394282B2, “Pyrazole carboxamides as Janus kinase inhibitors” (Merck Sharp & Dohme Corp., priority 2011, dated 2016)
# Biological target: JAK2 (Homo sapiens (Human), UniProt O60674)
# Assay: Jak biochemical HTRF assay, JAK2
# Conditions: recombinant purified GST-tagged catalytic domain; HTRF format; [ATP] 8.5 μM
# Source text: (§1) Jak Biochemical HTRF Assay Protocol
# (§2) Subsequent reagent additions employed an Agilent Bravo.
# Chain of JAK2 (O60674 849-1124): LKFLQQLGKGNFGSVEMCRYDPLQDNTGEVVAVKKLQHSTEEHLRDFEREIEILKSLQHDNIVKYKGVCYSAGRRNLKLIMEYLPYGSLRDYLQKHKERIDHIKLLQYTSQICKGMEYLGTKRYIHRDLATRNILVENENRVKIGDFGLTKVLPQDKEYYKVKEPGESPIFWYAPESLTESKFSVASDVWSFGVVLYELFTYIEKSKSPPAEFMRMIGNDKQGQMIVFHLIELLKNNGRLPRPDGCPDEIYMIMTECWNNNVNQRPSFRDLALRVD
row,Compound,IC50
1,"CC(C)(C)OC(=O)N1CCC(n2cc(C(N)=O)c(Nc3ccc(F)cc3)n2)[C@H](C#N)C1 (mixture of isomers) [Example 2-2, (3R,4S and 3S,4R)-tert-butyl 4-(4-carbamoyl-3-((4-fluorophenyl)amino)-1H-pyrazol-1-yl)-3-cyanopiperidine-1-carboxylate]",841 nM
2,"CC(C)(C)OC(=O)N1CCC(n2cc(C(N)=O)c(Nc3ccc(F)cc3)n2)[C@@H](C#N)C1 (mixture of isomers) [Example 2-3, (3S,4S and 3R,4R)-tert-butyl 4-(4-carbamoyl-3-((4-fluorophenyl)amino)-1H-pyrazol-1-yl)-3-cyanopiperidine-1-carboxylate]",367 nM

# Same assay, conditions: recombinant purified GST-tagged catalytic domain; HTRF format; [ATP] […]
row,Compound,IC50
1,"N#C[C@@H]1CN(C(=O)OC2CCCCC2)CC[C@H]1n1cc(C(N)=O)c(Nc2ccc(F)cc2)n1 (mixture of isomers) [Example 5-17, cyclohexyl (3R,4R and 3S,4S)-4-{4-carbamoyl-3-[(4-fluorophenyl)amino]-1H-pyrazol-1-yl}-3-cyanopiperidine-1-carboxylate]",1230 nM
2,"Cn1nccc1CN1CC[C@@H](n2cc(C(N)=O)c(Nc3ccc(F)cc3)n2)[C@H](C#N)C1 (mixture of isomers) [Example 6-32, 1-{(3R,4R and 3S,4S)-3-cyano-1-[(1-methyl-1H-pyrazol-5-yl)methyl]piperidin 4-yl}-3-[(4-fluorophenyl)amino]-1H-pyrazole-4-carboxamide]",35 nM

# Biological target: JAK1 (Homo sapiens (Human), UniProt P23458)
# Sequence (P23458 875-1153): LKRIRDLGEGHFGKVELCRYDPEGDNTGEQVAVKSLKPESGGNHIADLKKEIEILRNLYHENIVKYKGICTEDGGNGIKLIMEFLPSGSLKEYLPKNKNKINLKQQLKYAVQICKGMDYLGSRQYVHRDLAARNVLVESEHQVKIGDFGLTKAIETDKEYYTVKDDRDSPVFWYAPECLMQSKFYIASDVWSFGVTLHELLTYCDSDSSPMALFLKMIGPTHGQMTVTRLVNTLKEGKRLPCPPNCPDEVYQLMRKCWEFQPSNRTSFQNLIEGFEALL
# Assay: Jak biochemical HTRF assay, JAK1
# Conditions: recombinant purified GST-tagged catalytic domain; HTRF format; [ATP] 31.8 μM
# Source text: as §1, §2
row,Compound,IC50
1,"COC1CC(CN2CC[C@@H](C#N)[C@H](n3cc(C(N)=O)c(Nc4ccc(F)cc4)n3)C2)C1 (mixture of isomers) [Example 6-9, 1-{(3S,4R and 3R,4S)-4-cyano-1-[(3-methoxycyclobutyl)methyl]piperidin-3-yl}-3-[(4-fluorophenyl)amino]-1H-pyrazole-4-carboxamide]",16 nM
2,"N#C[C@@H]1CCN(Cc2cccnc2F)C[C@H]1n1cc(C(N)=O)c(Nc2ccc(F)cc2)n1 (racemic) [Example 6-17, 1-{(3S,4R and 3R,4S)-4-cyano-1-[(2-fluoropyridin-3-yl)methyl]piperidin-3-yl}-3-[(4-fluorophenyl)amino]-1H-pyrazole-4-carboxamide]",1 nM
3,"Cc1ncc(CN2CC[C@@H](C#N)[C@H](n3cc(C(N)=O)c(Nc4ccc(F)cc4)n3)C2)s1 (racemic) [Example 6-18, 1-{(3S,4R and 3R,4S)-4-cyano-1-[(2-methyl-1,3-thiazol-5-yl)methyl]piperidin-3-yl}-3-[(4-fluorophenyl)amino]-1H-pyrdzole-4-carboxamide]",1 nM
4,"N#C[C@@H]1CN(Cc2cocn2)CC[C@H]1n1cc(C(N)=O)c(Nc2ccc(F)cc2)n1 (racemic) [Example 6-25, 1-[(3R,4R and 3S,4S)-3-cyano-1-(1,3-oxazol-4-ylmethyl)piperidin-4-yl]-3-[(4-fluorophenyl)amino]-1H-pyrazole-4-carboxamide]",6 nM
5,"Cn1ccc(CN2CC[C@@H](n3cc(C(N)=O)c(Nc4ccc(F)cc4)n3)[C@H](C#N)C2)n1 (racemic) [Example 6-26, 1-{(3R,4R and 3S,4S)-3-cyano-1-[(1-methyl-1H-pyrazol-3-yl)methyl]piperidin-4-yl}-3-[(4-fluorophenyl)amino]-1H-pyrazole-4-carboxamide]",17 nM
6,"N#C[C@@H]1CN(Cc2cncc(F)c2)CC[C@H]1n1cc(C(N)=O)c(Nc2ccc(F)cc2)n1 (racemic) [Example 6-28, 1-{(3R,4R and 3S,4S)-3-cyano-1-[(5-fluoropyridin-3-yl)methyl]piperidin-4-yl}-3-[(4-fluorophenyl)amino]-1H-pyrazole-4-carboxamide]",6 nM
7,"COC1CC(CN2CC[C@@H](n3cc(C(N)=O)c(Nc4ccc(F)cc4)n3)[C@H](C#N)C2)C1 (mixture of isomers) [Example 6-30, 1-{(3R,4R and 3S,4S)-3-cyano-1-[(3-methoxycyclobutyl)methyl]piperidin-4-yl}-3-[(4-fluorophenyl)amino]-1H-pyrazole-4-carboxamide]",16 nM
8,"N#C[C@@H]1CN(CCC2CCOCC2)CC[C@H]1n1cc(C(N)=O)c(Nc2ccc(F)cc2)n1 (racemic) [Example 6-31, 1-{(3R,4R and 3S,4S)-3-cyano-1-[2-(tetrahydro-2H-pyran-4-yl)ethyl]piperidin-4-yl}-3-[(4-fluorophenyl)amino]-1H-pyrazole-4-carboxamide]",23 nM
9,"N#C[C@@H]1CN(Cc2cccc(F)n2)CC[C@H]1n1cc(C(N)=O)c(Nc2ccc(F)cc2)n1 (racemic) [Example 6-36, 1-{(3R,4R and 3S,4S)-3-cyano-1-[(6-fluoropyridin-2-yl)methyl]piperidin-4-yl}-3-[(4-fluorophenyl)amino]-1H-pyrazole-4-carboxamide]",2 nM
10,"CC1=NOC(CN2CC[C@@H](n3cc(C(N)=O)c(Nc4ccc(F)cc4)n3)[C@H](C#N)C2)C1 (mixture of isomers) [Example 6-39, 1-{(3R,4R and 3S,4S)-3-cyano-1-[(3-methyl-4,5-dihydroisoxazol-5-yl)methyl]piperidin-4-yl}-3-[(4-fluorophenyl)amino]-1H-pyrazole-4-carboxamide]",4 nM

# Further lines, results first:
row,IC50,Compound
1,0.5 nM,"N#C[C@@H]1CCN(Cc2cncs2)C[C@H]1n1cc(C(N)=O)c(Nc2ccc(F)cc2)n1 (racemic) [Example 7-1, 1-[(3S,4R and 3R,4S)-4-Cyano-1-(1,3-thiazol-5-ylmethyl)piperidin-3-yl]-3-[(4-fluorophenyl)amino]-1H-pyrazole-4-carboxamide]"
2,5 nM,"N#C[C@H]1CS(=O)(=O)CC1n1cc(C(N)=O)c(Nc2ccnc(F)c2)n1 (mixture of isomers) [Example 8-8, 1-((3S,4S and 3R,4R)-4-cyano-1,1-dioxidotetrahydrothiophen-3-yl)-3-((2-fluoropyridin-4-yl)amino)-1H-pyrazole-4-carboxamide]"
3,26 nM,"N#C[C@H]1CCOC[C@@H]1n1cc(C(N)=O)c(Nc2ccc(Cl)c(Cl)c2)n1 (single isomer, unassigned) [Example 9-10, 1-[(3R,4S or 3S,4R)-4-cyanotetrahydro-2H-pyran-3-yl]-3-[(3,4-dichlorophenyl)amino]-1H-pyrazole-4-carboxamide]"
4,0.4 nM,"N#C[C@@H]1CCOC[C@H]1n1cc(C(N)=O)c(Nc2ccc(Cl)c(Cl)c2)n1 (single isomer, unassigned) [Example 9-11, 1-[(3S,4R or 3R,4S)-4-cyanotetrahydro-2H-pyran-3-yl]-3-[(3,4-dichlorophenyl)amino]-1H-pyrazole-4-carboxamide]"
5,16 nM,"N#C[C@H]1CCOC[C@@H]1n1cc(C(N)=O)c(Nc2ccc(Cl)c(F)c2)n1 (single isomer, unassigned) [Example 9-12, 3-[(4-chloro-3-fluorophenyl)amino]-1-[(3R,4S or 3S,4R)-4-cyanotetrahydro-2H-pyran-3-yl]-1H-pyrazole-4-carboxamide]"
6,0.2 nM,"N#C[C@@H]1CCOC[C@H]1n1cc(C(N)=O)c(Nc2ccc(Cl)c(F)c2)n1 (single isomer, unassigned) [Example 9-13, 3-[(4-chloro-3-fluorophenyl)amino]-1-[(3S,4R or 3R,4S)-4-cyanotetrahydro-2H-pyran-3-yl]-1H-pyrazole-4-carboxamide]"
7,0.7 nM,"N#C[C@H]1CCOC[C@@H]1n1cc(C(N)=O)c(Nc2ccc(C(F)(F)F)nc2)n1 (single isomer, unassigned) [Example 9-14, 1-[(3R,4S or 3S,4R)-4-cyanotetrahydro-2H-pyran-3-yl]-3-{[6-(trifluoromethyl)pyridin-3-yl]amino}-1H-pyrazole-4-carboxamide]"
8,46 nM,"N#C[C@@H]1CCOC[C@H]1n1cc(C(N)=O)c(Nc2ccc(C(F)(F)F)nc2)n1 (single isomer, unassigned) [Example 9-15, 1-[(3S,4R or 3R,4S)-4-cyanotetrahydro-2H-pyran-3-yl]-3-{[6-(trifluoromethyl)pyridin-3-yl]amino}-1H-pyrazole-4-carboxamide]"
9,21 nM,"N#C[C@@H]1CCOC[C@H]1n1cc(C(N)=O)c(Nc2cnc3cc(Cl)ccc3c2)n1 (single isomer, unassigned) [Example 9-21, 3-[(7-chloroquinolin-3-yl)amino]-1-[(3S,4R or 3R,4S)-4-cyanotetrahydro-2H-pyran-3-yl]-1H-pyrazole-4-carboxamide]"
10,0.5 nM,"N#C[C@H]1CCOC[C@@H]1n1cc(C(N)=O)c(Nc2cnc3cc(Cl)ccc3c2)n1 (single isomer, unassigned) [Example 9-22, 3-[(7-chloroquinolin-3-yl)amino]-1-[(3R,4S or 3S,4R)-4-cyanotetrahydro-2H-pyran-3-yl]-1H-pyrazole-4-carboxamide]"
11,3 nM,"COC(C)(C)c1ccc(Nc2nn([C@H]3COCC[C@@H]3C#N)cc2C(N)=O)cc1 (single isomer, unassigned) [Example 9-23, 1-[(3R,4S or 3S,4R)-4-cyanotetrahydro-2H-pyran-3-yl]-3-{[4-(1-methoxy-1-methylethyl)phenyl]amino}-1H-pyrazole-4-carboxamide]"
12,0.1 nM,"COC(C)(C)c1ccc(Nc2nn([C@@H]3COCC[C@H]3C#N)cc2C(N)=O)cc1 (single isomer, unassigned) [Example 9-25, 1-[(3S,4R or 3R,4R)-4-cyanotetrahydro-2H-pyran-3-yl]-3-{[4-(1-methoxy-1-methylethyl)phenyl]amino}-1H-pyrazole-4-carboxamide]"
13,10 nM,"N#C[C@H]1CCOC[C@@H]1n1cc(C(N)=O)c(Nc2ccccc2)n1 (single isomer, unassigned) [Example 9-37, 1-[(3S,4R or 3R,4S)-4-cyanotetrahydro-2H-pyran-3-yl]-3-(phenylamino)-1H-pyrazole-4-carboxamide]"
14,0.3 nM,"N#C[C@@H]1CCOC[C@H]1n1cc(C(N)=O)c(Nc2ccccc2)n1 (single isomer, unassigned) [Example 9-38, 1-[(3R,4S or 3S,4R)-4-cyanotetrahydro-2H-pyran-3-yl]-3-(phenylamino)-1H-pyrazole-4-carboxamide]"
